Experimental data from US20210161918A1, “TIGECYCLINE FOR TOPICAL TREATMENT OF ROOT CANAL SPACE” (THE UNIVERSITY OF NORTH CAROLINA AT CHAPEL HILL, priority 2018, published 2021).
Marks after values point to notes of the source that are not given here. Each block holds one compound with its values, some of them ahead of it.

Columns and labels:
[1] = test system: Enterococcus faecalis (ATCC 4083), Streptococcus intermedius (ATCC 31412), Fusobacterium nucleatum (ATCC 49256), Porphyromonas gingivalis (ATCC 33277); assay: MIC and MBC by E-test; assay type: cell-based
Description: Four common endodontic pathogens were selected for the study: Enterococcus faecalis (ATCC 4083), Streptococcus intermedius (ATCC 31412), Fusobacterium nucleatum (ATCC 49256), and Porphyromonas gingivalis (ATCC 33277). […] Then, each microorganism was cultured in their recommended broth as follow; brain heart infusion (BHI) broth for […], Todd Hewitt broth for S. intermedius, chopped meat for F. nucleatum, and tryptic soy broth supplemented with hemin and vitamin K for P. gingivalis. […] One-way analysis of variance (ANOVA), followed by the Tukey's HSD (with p<0.05) was used for the four microorganisms to compare: A) the MICs and MBCs among tested antibiotics, B) the difference between baseline CFUs and post-treatment CFUs for different antibiotics/scaffold formulations and, C) the changes in color among the groups.

[2] = Crown color change measurement (tooth discoloration, CIE L*a*b*); set-up: species or system human
Source text: (§1) One hundred and twenty intact single rooted permanent human teeth were collected for the study. All teeth were autoclaved, then access cavities were prepeared and the canal instrumented to size 40/0.04, with saline irrigation. Teeth were autoclaved again to ensure absence of bacteria prior to bacterial inoculation. The root canals were then inoculated with the bacterial mixture, using syringe delivery, with the 30-gauge needle close to the working length. Access cavities were then sealed with a sterile sponge and Cavit (3M ESPE). All teeth were then incubated in the anaerobic chamber. The suspensions were replenished weekly for 3 weeks to allow for biofilm formation and maturation (14).
Crown color was measured as described previously (16). All color measurements were taken in a dark room inside the anaerobic chamber. The instrument was calibrated before the measurement in each group. • The mean baseline color measurements were taken prior to filling the root canal with the antibiotics (C0) and then at 1 week (C1), 2 weeks (C2), and 3 weeks (C3). The results were expressed in the CIE L*a*b* system (L* [black-white], a* [red-green] and b* [blue-yellow]). • Mean color change (ΔE) value was calculated using the following formula; […].
One-way analysis of variance (ANOVA), followed by the Tukey's HSD (with p<0.05) was used for the four microorganisms to compare: A) the MICs and MBCs among tested antibiotics, B) the difference between baseline CFUs and post-treatment CFUs for different antibiotics/scaffold formulations and, C) the changes in color among the groups.

[3] = test system: polymicrobial biofilm of E. faecalis, S. intermedius, F. nucleatum and P. gingivalis in root canals; assay: Post-treatment CFUs in ex vivo root canals inoculated with bacterial mixture (3-week biofilm), dressed with antibiotics/hydrogel scaffolds; assay type: cell-based; conditions: for samples with bacterial growth: n=15 per group; for Log10 CFUs: 1 week dressing
Source text: as §1

[4] = comparison among tested antibiotics, P<0.05

Minimum Inhibitory Concentration (MIC) [1, 4]: significantly higher
Structure (SMILES): O=C(O)c1cn(C2CC2)c2cc(N3CCNCC3)c(F)cc2c1=O [Ciprofloxacin, ciprofloxacin]
Minimum Bactericidal Concentration (MBC) [1, 4]: significantly higher

Structure (SMILES): Cc1ncc([N+](=O)[O-])n1CCO [metronidazole]
inhibition zone ([1]; against any of tested microorganisms): no inhibition zone

mean color change (ΔE) ([2]; 1 mg/mL, one week post-treatment): 6.9±1.9 | mean color change (ΔE) ([2]; 1 mg/ml, 2 and 3 weeks post-treatment): 8.4±2.0 | tooth discoloration ([2]; greater than 1 mg/ml to about 10 mg/mL, after applying an inner bonding within the coronal endodontic access preparation): no detectable discoloration
Structure (SMILES): CN(C)c1cc(NC(=O)CNC(C)(C)C)c(O)c2c1C[C@H]1C[C@H]3[C@H](N(C)C)C(O)=C(C(N)=O)C(=O)[C@@]3(O)C(O)=C1C2=O [Tigecycline]
samples with bacterial growth ([3]; 0.1 mg/mL): 93.3% | Log10 CFUs ([3]; 0.1 mg/ml in hydrogel scaffold): 3.38 ^b | samples with bacterial growth ([3]; 1 mg/mL): 33.3% | Log10 CFUs ([3]; 1 mg/ml in hydrogel scaffold): 0.93 ^c
